In patent US10945980B2, “Treatment for myopia” (The University of Newcastle, priority 2016, dated 2021):

Tested on: lens-induced myopia in guinea pigs
Test: L-arginine eye drops in −6D lens-induced myopia
Format: in vivo, guinea pig (Cavia porcellus)
Source text: Guinea pigs (pigmented variety, Cavia porcellus) were bred, housed, and raised as described in Example 1. Lights were on a 12 hr light 12 hr dark cycle. The University of Newcastle Animal Care and ethics Committee approved all procedures.
Two experimental protocols were employed (see Table 4). In Experiment 1, young guinea pigs wore a −6D lens on one eye from 5-12 days of age. They were randomly divided within each litter into two groups of 10 animals each, and received either a drop of L-Arginine (100 mM, 1.7%) in Saline (pH 7.4) or Saline alone (0.9%, pH 7.4) twice per day in the eye wearing the lens (Table 4). Drops were administered at the beginning of their light cycle and again approximately 6 hrs later in the middle of their day cycle. Lenses were removed during the drop administration which occurred under dim red light or in darkness. A single large drop was bathed on the cornea for 3 min in the lens-wearing eye in hand held animals. A clean lens was then reintroduced onto the eye. In Experiment 2, 14 guinea pigs were given eye drops in the same manner as in Experiment 1, but in both eyes and without any lens-wear, to determine the effect of the eye drops on normal eye growth. Animals received one drop of either 1.7% L-arginine (n=7) or atropine (Minims Atropine Sulphate 1%, Bausch & Lomb, preservative free, n=7) in one eye and saline (0.9%) in the other eye twice per day from 9-16 days of age.
In Experiment 1, at the end of the lens-wearing period, at 12 days of age just before the morning lights came on, both eyes were cyclopleged (1% Cyclopentolate—to paralyse the focussing muscles of the eye to a resting state) and 1.25 hours later, refractive error (RE) was measured. Animals were then anaesthetised with gaseous anaesthetic (1.5% isoflurane in oxygen) and eye length measures were taken in both eyes with high frequency ultrasound as described in Example 1. Biometry measures were also taken in the same manner before the lens wear period at 5 days of age. [No refractive measures were done at 5 days of age as cycloplegia could have interfered with the drug or lens response]. In Experiment 2, refractive error and eye length using ultrasound were measured in the same manner at 17 days of age, 24 hours after the previous drop was administered.
In Experiment 1, lens-induced myopia was achieved by attaching −6D concave lenses to matching Velcro arcs glued above and below the experimental eye as previously described (Howlett & McFadden, 2009). Lenses were exchanged with a clean lens after drop administration.
After cycloplegia was induced, refractive error was measured in each eye using an Autorefractor (Nidek AR-20, Japan). The spherical equivalent was calculated as the average of the sphere plus half the cylinder as is normal in clinical practice. All reported refractive errors are the spherical equivalent. Next, ocular length was measured using high frequency ultrasound (20 MHz) as previously described (McFadden et al, 2004). At least 20 traces were recorded for each eye and distances were averaged for at least 10 of these recordings. Peaks from the recordings were selected for the back of the cornea, the crystalline lens, and the vitreous chamber, and the layers at the back of the eye: the retina, choroid, and sclera. Ocular length was defined as the summed measurement from the front of the cornea to the back of the sclera.
Differences between the two eyes were analysed by a 2-tailed T-tests. The mean of calculated differences between the two eyes is referred to as relative myopia or relative ocular length and the difference in the change in ocular length in the treated compared to the untreated eye as relative growth.

N=C(N)NCCC[C@H](N)C(=O)O [L-arginine]
animals that did not develop myopia in the lens-wearing eye (1.7% (100 mM) LA eye drops twice daily, −6D lens): 7/10
relative eye growth (mean growth in ocular length) across all animals (1.7% LA eye drops twice daily, between 5 and 12 days of age, −6D lens, p=0.01 vs saline): 42±17 μm
relative growth in the 70% of animals which failed to develop myopia (1.7% LA eye drops twice daily, between 5 and 12 days of age, p=0.44): 10±12 μm
animals protected from developing myopia (1.7% LA eye drops twice daily, −6D lens): 70%
relative myopia in the 7 animals that did not develop myopia (1.7% LA eye drops twice daily, −6D lens, p=0.000 vs saline): −2.5±0.7 D
relative myopia, mean across all 10 animals (1.7% LA eye drops twice daily, −6D lens, p=0.007 vs saline): −3.6±0.8 D
mean myopia as percent of that in control animals (1.7% LA eye drops, the 70% of animals protected): 37%
mean refractive error in untreated eyes (untreated fellow eyes of LA group at 12 days of age, 1.7% LA eye drops twice daily in the other eye): +5.2±0.5 D
